Reference: ChEMBL document CHEMBL1955806, “Design, synthesis, single-crystal and preliminary antitumor activity of novel arenesulfonylimidazolidin-2-ones” (2012)

How the values were obtained:
Type in all cases: functional
HCT-15 = test: Growth inhibition of human HCT15 cells at 10 uM after 48 hrs by sulforhodamine B assay; conditions: HCT-15, 48 h, read-out: GI
KM12 = test: Growth inhibition of human KM12 cells at 10 uM after 48 hrs by sulforhodamine B assay; conditions: KM12, 48 h, read-out: GI
MCF7 = test: Growth inhibition of human MCF7 cells at 10 uM after 48 hrs by sulforhodamine B assay; conditions: MCF7, 48 h, read-out: GI
MDA-MB-231 = test: Growth inhibition of human MDA-MB-231/ATCC cells at 10 uM after 48 hrs by sulforhodamine B assay; conditions: MDA-MB-231, 48 h, read-out: GI
MDA-MB-468 = test: Growth inhibition of human MDA-MB-468 cells at 10 uM after 48 hrs by sulforhodamine B assay; conditions: MDA-MB-468, 48 h, read-out: GI
NCI/ADR-RES = test: Growth inhibition of human NCI/ADR-RES cells at 10 uM after 48 hrs by sulforhodamine B assay; conditions: read-out: GI
DU-145 = test: Growth inhibition of human DU145 cells at 10 uM after 48 hrs by sulforhodamine B assay; conditions: DU-145, 48 h, read-out: GI
RPMI-8226 = test: Growth inhibition of human RPMI8226 cells at 10 uM after 48 hrs by sulforhodamine B assay; conditions: RPMI-8226, 48 h, read-out: GI
SR = test: Growth inhibition of human SR cells at 10 uM after 48 hrs by sulforhodamine B assay; conditions: read-out: GI
786-0 = test: Growth inhibition of human 786-0 cells at 10 uM after 48 hrs by sulforhodamine B assay; conditions: 786-0, 48 h, read-out: GI
ACHN = test: Growth inhibition of human ACHN cells at 10 uM after 48 hrs by sulforhodamine B assay; conditions: read-out: GI
SN12C = test: Growth inhibition of human SN12C cells at 10 uM after 48 hrs by sulforhodamine B assay; conditions: read-out: GI
UO-31 = test: Growth inhibition of human UO31 cells at 10 uM after 48 hrs by sulforhodamine B assay; conditions: UO-31, 48 h, read-out: GI
Malme-3M = test: Growth inhibition of human MALME-3M cells at 10 uM after 48 hrs by sulforhodamine B assay; conditions: read-out: GI
UACC-62 = test: Growth inhibition of human UACC62 cells at 10 uM after 48 hrs by sulforhodamine B assay; conditions: UACC-62, 48 h, read-out: GI
SF-295 = test: Growth inhibition of human SF295 cells at 10 uM after 48 hrs by sulforhodamine B assay; conditions: SF-295, 48 h, read-out: GI
U-251 = test: Growth inhibition of human U251 cells at 10 uM after 48 hrs by sulforhodamine B assay; conditions: U-251, 48 h, read-out: GI

Work on CO[C@@H]1[C@@H](OC)N(S(=O)(=O)c2ccc(Cl)cc2)C(=O)N1S(=O)(=O)c1ccc(Cl)cc1 (relative stereo) yielded an inhibition of growth at 10 µM (HCT-15) of 19.8%, an inhibition of growth at 10 µM (KM12) of 3.47% and an inhibition of growth at 10 µM (MCF7) of 16%. For the same molecule, the inhibition of growth at 10 µM (MDA-MB-231) was 23.4%, the inhibition of growth at 10 µM (MDA-MB-468) was 6.61% and the inhibition of growth at 10 µM (NCI/ADR-RES) was 13.8%. For the same molecule, the inhibition of growth at 10 µM (DU-145) was -9.28%, the inhibition of growth at 10 µM (RPMI-8226) was 21.9% and the inhibition of growth at 10 µM (SR) was 34.7%. It also gave an inhibition of growth at 10 µM (786-0) of 16.8%, an inhibition of growth at 10 µM (ACHN) of 9.71% and an inhibition of growth at 10 µM (SN12C) of 14.4%. It also gave an inhibition of growth at 10 µM (UO-31) of 39.4%, an inhibition of growth at 10 µM (Malme-3M) of 6.65% and an inhibition of growth at 10 µM (UACC-62) of 42.1%. It also gave an inhibition of growth at 10 µM (SF-295) of 34% and an inhibition of growth at 10 µM (U-251) of 6.07%.
